Data: US12485110B2, “Use of ergothioneine for extending lifespan or improving healthspan” (NANJING NUTRABUILDING BIO-TECH CO., LTD., priority 2022, dated 2025)
Entries after “also recorded” stand apart in the source; their conditions may differ.

Key:
C. elegans [1] = test: Lifespan assay (Automated Lifespan Machine); type: in vivo; settings: for Maximum lifespan: 95th percentile of lifespans; for Median lifespan: N2 wild type, day 0 = day 1 of adulthood; for Mean lifespan: area under survival curve; for Lifespan / survival relative to vehicle control (in words): 5.0 mM (highest treatment group)
From the text: N2 (Bristol) wild type strain has been used in this application.
To prevent chemical modification or metabolism of the test article by the food bacteria, worms were fed on a lawn of UV-killed bacteria (UV-i bacteria). An overnight culture of E. coli strain WP-2 was pelleted, washed, filtered, and irradiated. A suspension of UV-i bacteria was spotted on NGM agar containing Streptomycin to inhibit the growth of contaminating bacteria. The quantity and distribution of food bacteria were calibrated to ensure adequate access to food for the duration of assay while maintaining visibility of the worms.
The ALM used herein is based on the Caenorhabditis elegans lifespan machine published by Stroustrup et. al (Stroustrup, N. et al. The Caenorhabditis elegans Lifespan Machine. Nat Methods 10, 665-670 (2013)), with proprietary modifications to improve temperature stability and image acquisition. The scanner unit consists of a modified EPSON V850 and images are processed and analyzed using the ALM software (see id.). The machine time-of-death calls are trained and validated using the “storyboarding” feature of the ALM software.
The lifespan assay was designed and performed according to published and validated methods (Amrit, F. R. G., Ratnappan, R., Keith, S. A. & Ghazi, A. The C. elegans lifespan assay toolkit. Methods 68, 465-475 (2014)), using a modified version of the Automated Lifespan Machine (Stroustrup, N. et al. The Caenorhabditis elegans Lifespan Machine. Nat Methods 10, 665-670 (2013)). Worms were age synchronized by bleaching and eggs were plated directly onto NGM agar seeded with UV-i bacteria (Day 1, hatch). On Day 3, when the worms had reached the late L4 stage, they were transferred to dishes containing 100 μM 5-Fluorodeoxyuridine (FUdR) to suppress progeny. On day 5, the worms were washed off the dishes, and 30-50 worms were plated on each scanner dish. Plates were immobilized inverted on the bed of an Automated Lifespan Machine which scanned two images per hour of the plates continuously for the next 40 days.
Time of death calls exported from the ALM software was analyzed and plotted using the Lifelines software package developed by Cam Davidson-Pilon et. al (Lifelines Version: v0.25.9). Additional analysis performed using the OASIS2 analysis software (Seong Kyu Han et. al. OASIS 2: online application for survival analysis 2 with features for the analysis of maximal lifespan and healthspan in aging research. Oncotarget. 7:56147-56152. (2016)).
The lifespan assay was initiated by expanding all replicate groups to more than 1000 worms, then synchronizing by bleaching and allowing larval worms to hatch and arrest. To eliminate the effect of bacterial metabolism and growth on lifespan of C. elegans (wild type, and not over express β-amyloid peptide) worms, synchronized worms were only exposed to dead food bacteria. To suppress progeny, worms were transferred to media containing 5-Fluorodeoxyuridine (FUdR) within 54-60 hours post-plating. Worms were inspected 24 and 48 hours after this transfer to confirm infertility. Finally, the worms were inspected for general health and morphology before transferring to scanner plates. The scanner plates were incubated for an additional 2 days and inspected again before loading onto scanners.
To obtain high-resolution lifespan data and eliminate confounding factors such as worm handling and operator bias, lifespan data was collected using an Automated Lifespan Machine (ALM) (Stroustrup, N. et al. The Caenorhabditis elegans Lifespan Machine. Nat Methods 10, 665-670 (2013)). Three biological replicates, derived from synchronizing three independently maintained lines of N2 worms, were distributed across instruments. Images of the worms were then collected for the next 35 days with no interruption or manipulations. Some plates were excluded after quality checks, but plate number and worm count for all replicates exceeded the threshold for statistical significance (Table 1, row 1).

C. elegans [2] = test: Acute toxicity assay; type: in vivo
Experimental: Making culturing plates with ergothioneine: C. elegans is usually grown in the laboratory using E. coli as a food source. Nematode Growth Medium (NGM) plates have been prepared by aseptically pouring NGM agar into petri plates. Ergothioneine was dissolved in water to make a working solution of 0.5 M and then mixed with E. coli liquid culture before seeding on NGM agar plates. The seeding spots were dried slowly, allowing ergothioneine to diffuse into the food bacteria and the agar for at least 24 hours before worms are introduced. The indicated ergothioneine dosages (0, 640 nM, 3.2 μM, 16 μM, 80 μM, 400 μM, 2 mM, and 10 mM) are based on the total volume of the plates.
The acute toxicity assay tests toxicity in adult worms by simulating the actual conditions of the lifespan assay. […] Second, over time worm deaths are scored to rule out doses that will likely have a negative impact on lifespan despite lacking immediate toxicity. […] Adult worms were monitored in the days immediately following exposure for early lethality or any other obvious defects.
Worms were treated with either vehicle control or ergothioneine at doses spanning a range from […] to 10 mM on media identical to what would be used in the lifespan experiment. […] Worms were examined for immediate toxic effects and then scored intermittently for survival until the start of lifespan experiment in the next step (see example 2 below). […]

C[N+](C)(C)[C@@H](Cc1c[nH]c(=S)[nH]1)C(=O)[O-] [Ergo, Ergothioneine]
Age in days at 25% mortality (C. elegans [1]; 0.1 mM): 17.97 days
Age in days at 50% mortality (C. elegans [1]; 0.1 mM): 24.16 days
Age in days at 75% mortality (C. elegans [1]; 0.1 mM): 28.15 days
Age in days at 90% mortality (C. elegans [1]; 0.1 mM): 30.83 days
Age in days at 100% mortality (C. elegans [1]; 0.1 mM): 39 days
Dose dependence of lifespan (Kaplan-Meier, FIG. 4A) (C. elegans [1]; 0.1 mM, 0.5 mM and 5.0 mM): dose-dependent increase in lifespan
Maximum lifespan (C. elegans [1]; 0.1 mM): 33.2 days
Median lifespan (C. elegans [1]; 0.1 mM): 24.2 days
Mean lifespan (C. elegans [1]; 0.1 mM): 23.4 days
Age in days at 25% mortality (C. elegans [1]; 0.5 mM): 18.05 days
Age in days at 50% mortality (C. elegans [1]; 0.5 mM): 24.22 days
Age in days at 75% mortality (C. elegans [1]; 0.5 mM): 28.37 days
Age in days at 90% mortality (C. elegans [1]; 0.5 mM): 30.84 days
Age in days at 100% mortality (C. elegans [1]; 0.5 mM): 37.26 days
Maximum lifespan (C. elegans [1]; 0.5 mM): 33.3 days
Median lifespan (C. elegans [1]; 0.5 mM): 24.2 days
Mean lifespan (C. elegans [1]; 0.5 mM): 23.5 days
Age in days at 25% mortality (C. elegans [1]; 5.0 mM): 21.04 days
Age in days at 50% mortality (C. elegans [1]; 5.0 mM): 25.92 days
Age in days at 75% mortality (C. elegans [1]; 5.0 mM): 29.73 days
Age in days at 90% mortality (C. elegans [1]; 5.0 mM): 32.05 days
Age in days at 100% mortality (C. elegans [1]; 5.0 mM): 38.81 days
Lifespan / survival relative to vehicle control (in words) (C. elegans [1]): higher survival than the vehicle control at all timepoints
Lifespan / survival relative to vehicle control (in words) (C. elegans [1]; listed as Ergothioneine): significant positive increase in lifespan; also recorded: statistically significant shift in survival
Lifespan increase compared with Resveratrol positive control (C. elegans [1]; 5.0 mM vs 0.1 mM Resveratrol, log-rank tests): similarly to, but slightly less than the Resveratrol positive control
Maximum lifespan (C. elegans [1]; 5.0 mM): 34.6 days
Median lifespan (C. elegans [1]; 5.0 mM): 25.9 days
Mean lifespan (C. elegans [1]; 5.0 mM): 25.3 days
Early lethality (FIG. 3) (C. elegans [2]; 2 mM, upper end of the remaining doses): did not cause early lethality
Early lethality (FIG. 3) (C. elegans [2]; 10 mM, day 10 post treatment, L4 stage worms, 25° C.): showed an early lethality
